From patent publication US20250092399A1, “GENE THERAPY TARGETING THE NEONATAL FORM OF NAV1.5 FOR TREATING CANCER” (Celex Oncology Innovations Limited, priority 2018, published 2025)
Where “and” joins values, the source holds several entries; their conditions need not be identical. Identical values can stand only once. Like-named read-outs stand apart in the source and are kept apart here.

How the values were obtained:
[1] = tested on: Nav1.5 splice variant (neonatal and adult); conditions: cited from earlier work
nNav1.5 mRNA = assay: Real-time RT-PCR of nNav1.5 mRNA levels in SW620 cells; assay type: cell-based, human; conditions: for decrease in nNav1.5 mRNA levels in comparison to c-siRNA: 40 nM siRNA, 90 h after transfection
Protocol: Steps for polymerase chain reactions (PCRs) were as described before (Fraser et al., 2005). Conventional PCRs were performed using HotStarTaq Plus technology (Qiagen Ltd, Manchester, UK) in a Primus PCR machine (MWG-Biotech, Eurofins Genomics, Ebersberg, Germany). Quantitative real-time PCRs were carried out utilising SYBR Green technology (Qiagen) and a DNA Engine Opticon 2 system (MJ Research, Bio-Rad Laboratories Ltd, Hamel Hempstead, UK). Duplicate reactions on each sample were carried out simultaneously for target and reference genes. Control PCRs were carried out routinely by including non-target (-RT) reactions and monitoring melting curves. The primer pairs used were as follows:
The mRNA levels were quantified using the comparative 2^−ΔΔC(t) method (Livak and Schmittgen, 2001).
(§1) Lipofectamine 2000 reagent (Invitrogen) was used as the transfection agent and the protocol was applied according to the manufacturer's instructions. […] Electrophysiological recordings of siRNA-treated cells were also performed in parallel at given time points and in random order. For these treatments, recordings were made from 19-37 cells from ≥4 different transfections with matching controls.

SW620 cells [2] = assay: Cell viability (trypan blue exclusion) and proliferation (MTT); assay type: cell-based, human
Protocol: Cellular viability (toxicity) and proliferation were quantified as described previously (Fraser et al., 1999, 2003b; Grimes et al., 1995). Briefly, cells were seeded into 35 mm plates at 3.5×10^4/plate (for toxicity) or 24-well plates at 2× 10^4/well (for proliferation) and allowed to settle overnight. The cells were incubated under control conditions or treated with the drug, with a change of medium every 24 h. Cell viability was determined by trypan blue exclusion assay. Proliferation was determined by the colorimetric 3-(4,5-dimethylthiazol-2-yl)-2,5-diphenyltetrazolium bromide (MTT) assay. A ‘standard curve’ was constructed showing linearity over the experimental range. Each biological repeat (treatment and control) was performed in triplicate.

nNav1.5 protein = assay: Western blot of nNav1.5 protein expression (NESO-pAb); assay type: cell-based, human
Protocol: Cells were washed with PBS containing 0.5 mM NaF, 0.1 mM Na3 VO4 (Sigma-Aldrich) and lysed in RIPA buffer (0.5M Tris-HCl, pH 7.4, 1.5M NaCl, 2.5% deoxycholic acid, 10% NP-40, 10 mM EDTA) (Merck-Millipore Ltd, Watford, UK) supplemented with an EDTA-free protease inhibitor cocktail (Roche Products Ltd, Welwyn Garden City, UK). Then, cells were vortexed for 30 mins at 4° C. The lysate was centrifuged (15,000 g) at 4° C. and supernatant collected for measurement of the protein concentration by a standard Bradford assay (Bio-Rad protein assay, Bio-Rad). After 15 minutes at 70° C. in SDS loading buffer (62.5 mM Tris-HCl, 20% glycerol, 2% SDS, 100 mM DTT, 0.0025% bromphenol blue, 10% B-mercaptoethanol; pH 6.8), 50 μg of protein per lane was separated by 7.5% SDS-polyacrylamide gel electrophoresis and electroblotted onto 0.45 μm nitrocellulose membrane (Thermo Scientific). Equal protein loading was controlled by Ponceau S staining (Sigma-Aldrich). Membranes were ‘blocked’ with 5% bovine serum albumin (BSA) in TBS+0.1% Tween-20 for 1 hour and probed for 20 hours with the following primary antibodies (diluted in TBS+0.1% Tween 20+1% BSA): i) NESO-pAb antibody for nNav1.5 (1 μl/ml); and (ii) anti-actinin antibody (1 μl/ml) as loading control (Sigma-Aldrich). […]

SW620 cells [3] = assay: Matrigel invasion assay; assay type: cell-based, human; conditions: for reduction in number of invaded cells compared to c-siRNA: 40 nM siRNA, invasion over 48 h
Protocol: For hypoxia, cells were maintained as above but in 1% O2 for up to 120 h in a dedicated incubator (Micro Galaxy, RS Biotech Laboratory Equipment Ltd, Irvine, UK).
as §1
Thus, (i) insert filters (with 8 μm pores) were coated with 50 µl of 0.21 mg/ml Matrigel (BD Biosciences, Bedford, MA, USA); (ii) the chemotactic gradient was 0.1-10% FBS; and (iii) the cells were serum-starved for 24 hours and (iv) 10^5 cells were seeded onto each filter. After 48 hours, the insert was swabbed and then stained with crystal violet. The invaded cells in 12 non-overlapping fields of view were counted under ×400 magnification. […] Each treatment condition was tested 5-8 times.

[4] = molecular target: persistent current, INaP, of VGSC, especially Nav1.5 (Canis lupus familiaris, UniProt Q865W3); conditions: Antzelevitch et al., 2004; read-out: IC50 for block of hypoxia-induced persistent current INaP; cited from earlier work
[5] = tested on: VGSC currents (nNav1.5 / aNav1.5) in SW620 cells; assay: Whole-cell patch-clamp recording of VGSC currents in siRNA-transfected SW620 cells; assay type: cell-based, human; conditions: for proportion of cells demonstrating VGSC currents / peak VGSC current density: SW620 cells after siRNA transfection; for peak VGSC current density: median (25%-75% interquartile range); for Activation V1/2 (half-activation voltage) / Activation k (activation slope factor) / Inactivation V1/2 (half-inactivation voltage) / Inactivation k (inactivation slope factor) / Tinactivation (inactivation time constant) / Tpeak (time to peak): SW620 cells, 40 nM siRNA, 96 h transfection, 24 h serum starvation, mean ± SEM
Source text: Details of the patch pipettes, solutions, and the whole-cell recording protocols were as described previously (e.g. Laniado et al., 1997; 2001; Fraser et al., 2003a; Grimes et al, 1995). In brief, patch pipettes (tip resistances, ˜5 M Ω) were filled with a solution designed to block the outward K^+ currents; the composition was as follows (in mM): NaCl 5, CsCl 145, MgCl2 2, CaCl2) 1, HEPES 10 and EGTA 11, adjusted to pH 7.4 with 1 M CsOH. The estimated intracellular free Ca^2+ concentration was ˜15 nM (Laniado et al., 2001). Whole-cell membrane currents were recorded from cells that appeared ‘isolated’ in culture, using an Axopatch 200B amplifier (Axon Instruments, CA, USA). Analogue signals were filtered at 10 kHz using a low-pass Bessel filter, and series resistance errors were compensated by >90%. Electrophysiological signals were sampled at 50 kHz and digitised using an interface (Digidata 1200). Data acquisition and analysis of whole-cell currents were performed using pClamp software (Axon Instruments). A holding potential of −100 mV was applied, unless indicated otherwise. Standard voltage-clamp protocols were used to study the electrophysiological properties of the VGSC currents. There was a noticeable decrease in current amplitude with time in culture, also apparent in immunocytochemistry (FIG. 7). All routine recordings were done 24 hours after (re) plating and 24 hours of serum starvation (to match the condition of the invasion assays).
Conductance-voltage relationships were determined using the equation:
[formula] • where G is the conductance; I the current amplitude; V the test pulse; and Vrev the theoretical Na^+ reversal potential. Normalized curves for voltage dependence of steady-state activation and inactivation were fitted to a Boltzmann function of the form:
[formula] • where Gmax is the maximal conductance; Vm is the membrane voltage; V1/2 is the voltage at which the current is half activated/inactivated, and k is the slope factor of voltage sensitivity. For the time course of recovery from inactivation, the data was plotted as a function of recovery time and fitted to the following single exponential equation:
[formula] • where I is normalized current, t is time, t is the time constant, A is the amplitude of the normalized current, and C is the asymptote. More details can be found in Onkal et al. (2008).
as §1

Sequence of persistent current, INaP, of VGSC, especially Nav1.5 (Q865W3 1-2013): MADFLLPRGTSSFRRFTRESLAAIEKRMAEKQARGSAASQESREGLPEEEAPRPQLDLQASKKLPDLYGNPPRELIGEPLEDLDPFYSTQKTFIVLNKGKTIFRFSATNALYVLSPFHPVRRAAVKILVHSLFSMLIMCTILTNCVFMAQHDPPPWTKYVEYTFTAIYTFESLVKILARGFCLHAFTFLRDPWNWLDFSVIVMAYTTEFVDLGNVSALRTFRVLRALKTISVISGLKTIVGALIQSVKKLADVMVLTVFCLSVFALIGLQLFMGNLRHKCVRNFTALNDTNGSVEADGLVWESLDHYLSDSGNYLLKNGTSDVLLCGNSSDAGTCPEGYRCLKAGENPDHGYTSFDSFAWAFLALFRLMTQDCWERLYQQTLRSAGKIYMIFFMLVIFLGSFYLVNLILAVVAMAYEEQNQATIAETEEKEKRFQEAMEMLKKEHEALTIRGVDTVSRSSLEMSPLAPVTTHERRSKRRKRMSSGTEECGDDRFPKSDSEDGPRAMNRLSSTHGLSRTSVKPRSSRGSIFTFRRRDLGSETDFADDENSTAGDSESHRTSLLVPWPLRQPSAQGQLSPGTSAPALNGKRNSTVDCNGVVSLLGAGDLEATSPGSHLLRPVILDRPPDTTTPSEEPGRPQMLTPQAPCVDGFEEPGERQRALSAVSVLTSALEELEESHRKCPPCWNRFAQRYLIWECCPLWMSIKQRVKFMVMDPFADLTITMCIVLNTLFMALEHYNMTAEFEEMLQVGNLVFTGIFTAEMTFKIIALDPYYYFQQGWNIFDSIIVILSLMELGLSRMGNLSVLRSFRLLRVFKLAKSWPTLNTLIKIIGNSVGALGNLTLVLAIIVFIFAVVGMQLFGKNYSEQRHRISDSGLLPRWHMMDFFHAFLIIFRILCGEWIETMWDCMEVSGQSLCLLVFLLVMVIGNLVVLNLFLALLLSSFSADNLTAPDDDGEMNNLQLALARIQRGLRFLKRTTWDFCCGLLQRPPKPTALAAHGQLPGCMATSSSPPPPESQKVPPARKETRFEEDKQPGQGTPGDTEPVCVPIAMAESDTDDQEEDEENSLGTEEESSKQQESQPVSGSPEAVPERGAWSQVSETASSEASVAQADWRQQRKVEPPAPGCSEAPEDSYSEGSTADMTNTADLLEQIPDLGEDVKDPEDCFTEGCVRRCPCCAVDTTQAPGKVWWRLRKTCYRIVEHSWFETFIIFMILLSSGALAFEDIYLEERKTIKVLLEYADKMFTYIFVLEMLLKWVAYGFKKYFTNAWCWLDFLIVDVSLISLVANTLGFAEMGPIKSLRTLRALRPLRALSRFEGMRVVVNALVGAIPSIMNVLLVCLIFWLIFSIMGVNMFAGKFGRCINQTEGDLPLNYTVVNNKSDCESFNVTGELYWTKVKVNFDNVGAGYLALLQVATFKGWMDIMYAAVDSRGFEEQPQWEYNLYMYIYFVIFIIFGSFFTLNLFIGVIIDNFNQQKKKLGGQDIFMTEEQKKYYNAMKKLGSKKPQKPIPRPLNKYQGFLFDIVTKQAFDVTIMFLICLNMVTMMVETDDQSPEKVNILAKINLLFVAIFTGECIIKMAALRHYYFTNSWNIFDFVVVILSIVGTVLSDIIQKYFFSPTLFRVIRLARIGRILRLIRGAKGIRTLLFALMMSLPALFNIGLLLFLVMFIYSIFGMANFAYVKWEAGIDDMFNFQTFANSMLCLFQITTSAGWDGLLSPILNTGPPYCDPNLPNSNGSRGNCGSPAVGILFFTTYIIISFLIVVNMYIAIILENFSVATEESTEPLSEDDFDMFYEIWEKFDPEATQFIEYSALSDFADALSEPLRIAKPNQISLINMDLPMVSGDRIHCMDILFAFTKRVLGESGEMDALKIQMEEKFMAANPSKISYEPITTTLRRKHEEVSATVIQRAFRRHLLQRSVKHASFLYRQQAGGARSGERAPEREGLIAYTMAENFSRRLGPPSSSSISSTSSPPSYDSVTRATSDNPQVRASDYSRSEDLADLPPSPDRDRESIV

NC1=N[C@H](O)[C@H]2[C@H]3O[C@]4(O)O[C@@H]([C@@H](O)[C@@]2(N1)[C@@H]4O)[C@]3(O)CO [TTX, Tetrodotoxin]
block of currents generated by either Nav1.5 splice variant [1]: > 80% | effect on hypoxia-induced increase of nNav1.5 mRNA expression (nNav1.5 mRNA): blocked this increase | effect on nNav1.5 mRNA expression (nNav1.5 mRNA): Lack of effect | effect on proliferation (SW620 cells [2]): not affected | effect on nNav1.5 protein expression (nNav1.5 protein): no effect | effect of TTX on invasiveness (SW620 cells [3]): no effect | effect on invasiveness (SW620 cells [3]): no effect | reduction of invasiveness by TTX (SW620 cells [3]): 32% and 34% | reduction of invasiveness cf. hypoxia control (SW620 cells [3]): 45% | inhibition of invasiveness (SW620 cells [3]; 20 µM): 37%

COc1ccccc1OCC(O)CN1CCN(CC(=O)Nc2c(C)cccc2C)CC1 (stereo not drawn) [ranolazine]
effect on hypoxia-induced increase of nNav1.5 mRNA expression (nNav1.5 mRNA; 5 μM, hypoxia 1% O2 48 h, SW620 cells): blocked this increase | effect on nNav1.5 mRNA expression (nNav1.5 mRNA; 5 μM, normoxia, SW620 cells): Lack of effect | IC50 [4]: 5.9 µM | effect on proliferation (SW620 cells [2]; up to 10 µM, normoxia or hypoxia (not shown)): not affected | effect on nNav1.5 protein expression (nNav1.5 protein; 5 μM, normoxia and hypoxia, SW620 cells): no effect | reduction in invasion cf. hypoxia control (SW620 cells [3]; 5 μM, hypoxia (1% O2, 72 h), SW620 cells): 37% | reduction in invasion (SW620 cells [3]; 5 μM, normoxia, SW620 cells): 9% | inhibition of invasion, dose dependence (SW620 cells [3]; 1-10 μM, hypoxia, control/c-siRNA-treated SW620 cells): dose-dependent manner with two-fold difference over 1-10 μM | effect on invasiveness in cells pre-treated with n3-siRNA (SW620 cells [3]; up to 10 μM, hypoxia, n3-siRNA pre-treated SW620 cells): no additional effect

AGGUAGUGUAAUCGCCUUG (listed as RNA, chemistry not given here) [c-siRNA, non-targeting control siRNA supplied by Eurofins]
effect on invasiveness (SW620 cells [3]; SW620 cells, normoxia or hypoxia (1% O2, 72 h)): no effect

CUAGGCAAUUUGUCGGCUC [n1-siRNA]
proportion of cells demonstrating VGSC currents [5]: 42% | peak VGSC current density [5]: 0.0 (0-3.1) pA/pF | decrease in nNav1.5 mRNA levels in comparison to c-siRNA (nNav1.5 mRNA; SW620 cells): 50±12% | reduction in number of invaded cells compared to c-siRNA (SW620 cells [3]; SW620 cells, normoxia): 64%

GAGUCCUGAGAGCUCUAAA [n3-siRNA]
proportion of cells demonstrating VGSC currents [5]: 51% | peak VGSC current density [5]: 1.0 (0-6.8) pA/pF | Activation V1/2 (half-activation voltage) [5]: −24.7 ± 2.0 mV | Activation k (activation slope factor) [5]: 6.1 ± 0.3 mV | Inactivation V1/2 (half-inactivation voltage) [5]: −86.5 ± 1.2 mV | Inactivation k (inactivation slope factor) [5]: −5.0 ± 0.4 mV | Tinactivation (inactivation time constant) [5]: 0.80 ± 0.10 ms | Tpeak (time to peak) [5]: 0.66 ± 0.04 ms | decrease in nNav1.5 mRNA levels in comparison to c-siRNA (nNav1.5 mRNA; SW620 cells): 32±10% | reduction in number of invaded cells compared to c-siRNA (SW620 cells [3]; SW620 cells, normoxia): 73% | hypoxia-induced increase in invasiveness (SW620 cells [3]; SW620 cells, hypoxia 1% O2 72 h, siRNA-treated): completely suppressed

GUCUCAGCCUUACGCACCU (listed as RNA, chemistry not given here) [a-siRNA, siRNA targeting 'adult' Nav1.5 (aNav1.5)]
proportion of cells demonstrating VGSC currents [5]: 58% | peak VGSC current density [5]: 3.5 (0-7.5) pA/pF | Activation V1/2 (half-activation voltage) [5]: −28.1 ± 1.7 mV | Activation k (activation slope factor) [5]: 6.7 ± 0.6 mV | Inactivation V1/2 (half-inactivation voltage) [5]: −95.6 ± 2.1 mV | Inactivation k (inactivation slope factor) [5]: −6.7 ± 0.7 mV | Tinactivation (inactivation time constant) [5]: 1.35 ± 0.19 ms | Tpeak (time to peak) [5]: 0.90 ± 0.06 ms | reduction in number of invaded cells compared to c-siRNA (SW620 cells [3]; SW620 cells, normoxia): 17%

UAUCAUGGCGUAUGUAUCA [n2-siRNA]
proportion of cells demonstrating VGSC currents [5]: 33% | peak VGSC current density [5]: 0.0 (0-2.4) pA/pF | decrease in nNav1.5 mRNA levels in comparison to c-siRNA (nNav1.5 mRNA; SW620 cells): 85±10% | reduction in number of invaded cells compared to c-siRNA (SW620 cells [3]; SW620 cells, normoxia): 45%
